What was measured:
[1] = system: hTeloCFRET (DNA, i motif) TAACCCTAACCCTAACCCTAACCC; test: FRET melting; settings: 100 mM NaCl; 10 mM sodium cacodylate pH 6; 10 μM compound, 200 nM DNA
[2] = system: hTeloGFRET (DNA, G4) GGGTTAGGGTTAGGGTTAGGG; test: FRET melting; settings: 100 mM NaCl; 10 mM sodium cacodylate pH 7.4; 10 μM compound, 200 nM DNA
[3] = system: hTeloCBiotin (DNA, i motif) TAACCCTAACCCTAACCCTAACCC; test: SPR, equilibrium affinity fit, 1:1 model; settings: 100 mM NaCl; 10 mM sodium cacodylate pH 5.5, 0.05% Tween-20, 5% DMSO, 25 °C
[4] = system: DSFRET (DNA, hairpin, HEG(18) linker (non-nucleotide) between 10 and 11) TATAGCTATATATAGCTATA; test: FRET melting; settings: 100 mM NaCl; 10 mM sodium cacodylate pH 7.4; 10 μM compound, 200 nM DNA
[5] = system: c-mycBiotin (DNA, i motif) CCTTCCCCACCCTCCCCACCCTCCCCA; test: SPR, equilibrium affinity fit, 1:1 model; settings: 100 mM NaCl; 10 mM sodium cacodylate pH 5.5, 0.05% Tween-20, 5% DMSO, 25 °C
[6] = system: DSBiotin (DNA, duplex) GGCATAGTGCGTGGGCGTTAGC/GCTAACGCCCACGCACTATGCC; test: SPR, equilibrium affinity fit, 1:1 model; settings: 100 mM NaCl; 10 mM sodium cacodylate pH 5.5, 0.05% Tween-20, 5% DMSO, 25 °C
[7] = system: hTeloC (DNA, i motif) TAACCCTAACCCTAACCCTAACCC; test: circular dichroism; settings: 100 mM NaCl; 10 mM sodium cacodylate pH 5.5, 20 °C

Row | ΔTm [1] | ΔTm [2] | Kd [3] | ∆Tm [4] | Kd [5] | ∆Tm [2] | Kd [6] | binding [7] | SMILES
1 | +17 °C | +0.4 °C |  |  |  |  |  |  | CN(C)CCNc1cccc2c1C(=O)c1cccc(NCCNc3ccccc3)c1C2=O
2 |  |  | 12 ± 3 µM | +6.4 °C | 12 ± 3 µM | +16 °C | ~ 71 ± 22 μM | yes | O=C1c2c(O)ccc(O)c2C(=O)c2c(NCCNCCO)ccc(NCCNCCO)c21
